Test results as given in patent publication US8993756B2 (Merck Sharp & Dohme Corp., priority 2011, dated 2015).

Legend:
JAK2 = JAK2 (Homo sapiens (Human), UniProt O60674); assay: Jak Biochemical HTRF Assay (JAK2); conditions: recombinant GST-tagged catalytic domain, [ATP] 8.5 μM
JAK3 = JAK3 (Homo sapiens (Human), UniProt P52333); assay: Jak Biochemical HTRF Assay (JAK3); conditions: recombinant GST-tagged catalytic domain, [ATP] 2.9 μM
Sequence of JAK3 (P52333 822-1111): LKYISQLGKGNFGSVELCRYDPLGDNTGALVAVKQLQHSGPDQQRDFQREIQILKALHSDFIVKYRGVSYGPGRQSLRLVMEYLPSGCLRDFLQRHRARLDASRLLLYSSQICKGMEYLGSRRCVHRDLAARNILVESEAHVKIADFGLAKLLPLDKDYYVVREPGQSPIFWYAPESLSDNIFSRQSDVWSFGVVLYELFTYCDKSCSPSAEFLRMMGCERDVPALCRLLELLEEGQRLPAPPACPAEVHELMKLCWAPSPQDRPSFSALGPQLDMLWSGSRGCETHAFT

Sequence of JAK2 (O60674 849-1124): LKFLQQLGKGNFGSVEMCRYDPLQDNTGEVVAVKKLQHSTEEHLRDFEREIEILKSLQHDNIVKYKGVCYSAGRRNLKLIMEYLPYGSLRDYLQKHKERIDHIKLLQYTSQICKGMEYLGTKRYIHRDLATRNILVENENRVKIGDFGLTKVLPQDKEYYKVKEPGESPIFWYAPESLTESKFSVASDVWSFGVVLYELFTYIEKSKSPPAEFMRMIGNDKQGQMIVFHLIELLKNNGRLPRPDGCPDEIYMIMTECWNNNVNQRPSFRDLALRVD

IC50 (JAK2) [nM] | IC50 (JAK3) [nM] | IC50 (JAK2; given as range class) [nM] | IC50 (JAK3; given as range class) [nM] | Structure (SMILES)
 |  | > 500 | 10 to 500 | CCOC(=O)c1c[nH]c2ncnc(-c3ccc(N4CCN(C)CC4)cc3)c12 [Example 1-85, ethyl 4-[4-(4-methylpiperazin-1-yl)phenyl]-7H-pyrrolo[2,3-d]pyrimidine-5-carboxylate]
 |  | 10 to 500 | 10 to 500 | CCOC(=O)c1c[nH]c2ncnc(C3=CCC(O)CC3)c12 (stereo not drawn) [Example 1-86, ethyl 4-(4-hydroxycyclohex-1-en-1-yl)-7H-pyrrolo[2,3-d]pyrimidine-5-carboxylate]
 |  | > 500 | 10 to 500 | CCOC(=O)c1c[nH]c2ncnc(-c3ccc(N4CCN(C)CC4)nc3)c12 [Example 1-87, ethyl 4-[6-(4-methylpiperazin-1-yl)pyridin-3-yl]-7H-pyrrolo[2,3-d]pyrimidine-5-carboxylate]
 |  | > 500 | 10 to 500 | CCOC(=O)c1c[nH]c2ncnc(C3=CCCOC3)c12 [Example 1-88, ethyl 4-(5,6-dihydro-2H-pyran-3-yl)-7H-pyrrolo[2,3-d]pyrimidine-5-carboxylate]
 |  | > 500 | 10 to 500 | CCOC(=O)c1c[nH]c2ncnc(-c3ccnc(OC)c3)c12 [Example 1-89, ethyl 4-(2-methoxypyridin-4-yl)-7H-pyrrolo[2,3-d]pyrimidine-5-carboxylate]
 |  | > 500 | 10 to 500 | CCOC(=O)c1c[nH]c2ncnc(-c3cnc(OC)nc3)c12 [Example 1-91, ethyl 4-(2-methoxypyrimidin-5-yl)-7H-pyrrolo[2,3-d]pyrimidine-5-carboxylate]
 |  | > 500 | 10 to 500 | CCOC(=O)c1c[nH]c2ncnc(-c3ccc(OC)nc3)c12 [Example 1-93, ethyl 4-(6-methoxypyridin-3-yl)-7H-pyrrolo[2,3-d]pyrimidine-5-carboxylate]
121 | 7.5 |  |  | CCOC(=O)c1c[nH]c2ncnc(-c3ccc(-n4cccn4)cc3)c12 [Example 1-94, ethyl 4-[4-(1H-pyrazol-1-yl)phenyl]-7H-pyrrolo[2,3-d]pyrimidine-5-carboxylate]

More lines, now with the values behind:

Structure (SMILES) | IC50 (JAK2) [nM] | IC50 (JAK3) [nM] | IC50 (JAK2; given as range class) [nM] | IC50 (JAK3; given as range class) [nM]
CCOC(=O)c1c[nH]c2ncnc(-c3ccc4cc[nH]c4c3)c12 [Example 1-83, ethyl 4-(1H-indol-6-yl)-7H-pyrrolo[2,3-d]pyrimidine-5-carboxylate] | 137 | 9.7 |  | 
CCOC(=O)c1c[nH]c2ncnc(-c3cnc4[nH]ccc4c3)c12 [Example 1-84, ethyl 4-(1H-pyrrolo[2,3-b]pyridin-5-yl)-7H-pyrrolo[2,3-d]pyrimidine-5-carboxylate] |  |  | 10 to 500 | 10 to 500
CCOC(=O)c1c[nH]c2ncnc(C3=CCC(C#N)CC3)c12 (stereo not drawn) [Example 1-90, ethyl 4-(4-cyanocyclohex-1-en-1-yl)-7H-pyrrolo[2,3-d]pyrimidine-5-carboxylate] |  |  | 10 to 500 | 10 to 500
CCOC(=O)c1c[nH]c2ncnc(-c3cnn(CCS(C)(=O)=O)c3)c12 [Example 1-92, ethyl 4-{1-[2-(methylsulfonyl)ethyl]-1H-pyrazol-4-yl}-7H-pyrrolo[2,3-d]pyrimidine-5-carboxylate] |  |  | > 500 | 10 to 500
CCOC(=O)c1c[nH]c2ncnc(-c3cccc(N4CCS(=O)(=O)CC4)c3)c12 [Example 1-95, ethyl 4-[3-(1,1-dioxidothiomorpholin-4-yl)phenyl]-7H-pyrrolo[2,3-d]pyrimidine-5-carboxylate] |  |  | > 500 | 10 to 500
CCOC(=O)c1c[nH]c2ncnc(-c3cccc(CN4CCOCC4)c3)c12 [Example 1-96, ethyl 4-[3-(morpholin-4-ylmethyl)phenyl]-7H-pyrrolo[2,3-d]pyrimidine-5-carboxylate] |  |  | > 500 | 10 to 500
CCOC(=O)c1c[nH]c2ncnc(-c3ccc(N4CCS(=O)(=O)CC4)cc3)c12 [Example 1-97, ethyl 4-[4-(1,1-dioxidothiomorpholin-4-yl)phenyl]-7H-pyrrolo[2,3-d]pyrimidine-5-carboxylate] | 348 | 6.8 |  | 
